The values that follow come from PubChem BioAssay AID602178 (NMMLSC, 2012).

Activity calls are given as the source filed them. The rule behind the calls is not given here.

The EC50 is the concentration giving half of the maximal effect.

The target in this assay is Lethal factor (Bacillus anthracis) (UniProt P15917). The assay can be described thus: Bacillus anthracis LF protease inhibitors, dose response, biochemical, multiplex microsphere, cherry pick 1 compounds (AID 602178). Conditions: multiplex microsphere protease cleavage assay, LF inhibition.
Chain of Lethal factor (Bacillus anthracis) (P15917 whole entry, looked up): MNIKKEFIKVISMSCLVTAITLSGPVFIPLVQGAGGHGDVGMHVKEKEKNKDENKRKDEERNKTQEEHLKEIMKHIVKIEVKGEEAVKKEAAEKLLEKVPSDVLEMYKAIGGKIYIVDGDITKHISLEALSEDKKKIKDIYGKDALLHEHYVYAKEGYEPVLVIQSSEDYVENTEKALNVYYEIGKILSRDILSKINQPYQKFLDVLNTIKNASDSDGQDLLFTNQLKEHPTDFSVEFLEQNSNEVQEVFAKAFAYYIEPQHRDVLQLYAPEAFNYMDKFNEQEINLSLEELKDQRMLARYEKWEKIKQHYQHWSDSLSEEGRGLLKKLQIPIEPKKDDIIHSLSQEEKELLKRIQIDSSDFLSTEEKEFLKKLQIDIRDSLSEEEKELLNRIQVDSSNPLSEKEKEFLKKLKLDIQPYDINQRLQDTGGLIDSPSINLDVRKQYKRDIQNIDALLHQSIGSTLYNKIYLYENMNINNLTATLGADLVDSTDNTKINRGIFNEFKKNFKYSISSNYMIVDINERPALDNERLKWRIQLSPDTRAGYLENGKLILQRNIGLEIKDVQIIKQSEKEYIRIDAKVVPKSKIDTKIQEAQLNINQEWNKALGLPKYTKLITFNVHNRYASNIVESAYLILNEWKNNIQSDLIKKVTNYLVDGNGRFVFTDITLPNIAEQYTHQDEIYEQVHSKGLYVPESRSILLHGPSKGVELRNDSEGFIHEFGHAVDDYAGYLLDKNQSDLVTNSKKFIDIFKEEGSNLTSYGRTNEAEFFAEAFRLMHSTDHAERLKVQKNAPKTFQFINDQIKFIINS

As to `Oc1[nH]c(N=C2N=c3ccccc3=N2)c2ccccc12`, the EC50 is > 20 µM (inactive).
